# Test results as given in patent publication US20250136619A1, “HETEROBIFUNCTIONAL COMPOUNDS AND THEIR USE IN TREATING DISEASE” (HALDA THERAPEUTICS OPCO, INC., priority 2021, published 2025).
# Read-outs that look alike come from different tables or passages of the source.
# What was measured:
# BTK = BTK (Homo sapiens (Human), UniProt Q06187); experiment: KdELECT assay for binding affinity to BTK
# Protocol: Compounds were tested using a KdELECT assay. Kinase-tagged T7 phage strains were prepared in an E. coli host derived from the BL21 strain. E. coli were grown to log-phase and infected with T7 phage and incubated with shaking at 32° C. until lysis. The lysates were centrifuged and filtered to remove cell debris. The remaining kinases were produced in HEK-293 cells and subsequently tagged with DNA for qPCR detection. Streptavidin-coated magnetic beads were treated with biotinylated small molecule ligands for 30 minutes at room temperature to generate affinity resins for kinase assays. The liganded beads were blocked with excess biotin and washed with blocking buffer (SeaBlock (Pierce), 1% BSA, 0.05% Tween 20, 1 mM DTT) to remove unbound ligand and to reduce non-specific binding. Binding reactions were assembled by combining kinases, liganded affinity beads, and test compounds in 1× binding buffer (20% SeaBlock, 0.17×PBS, 0.05% Tween 20, 6 mM DTT). Test compounds were prepared as 111X stocks in 100% DMSO. Kd values were determined using an 11-point 3-fold compound dilution series with three DMSO control points. All compounds for Kd measurements are distributed by acoustic transfer (non-contact dispensing) in 100% DMSO. The compounds were then diluted directly into the assays such that the final concentration of DMSO was 0.9%. All reactions performed in polypropylene 384-well plate. Each was a final volume of 0.02 mL. The assay plates were incubated at room temperature with shaking for 1 hour and the affinity beads were washed with wash buffer (1×PBS, 0.05% Tween 20). The beads were then re-suspended in elution buffer (1×PBS, 0.05% Tween 20, 0.5 μM nonbiotinylated affinity ligand) and incubated at room temperature with shaking for 30 minutes. The kinase concentration in the eluates was measured by qPCR.
# HeLa cells = experiment: Cellular growth inhibition assay (CellTiter-Glo), HeLa cells; format: cell-based; conditions: HeLa cells, three days of compound treatment, CellTiter-Glo 2.0, read-out: CTG HELA GI50
# Protocol: (§1) HEK293 and HeLa cells were cultured in DMEM medium supplemented with 10% fetal bovine serum and 1% Penn/Strep. Cells were seeded in white 384-well plates at 500 cells/well in […] complete medium. Following seeding, plates were spun at 300×g for three minutes and cultured at 37° C. with 5% CO2 in a humidified tissue culture incubator.
# (§2) After 24 hours, compounds were titrated in 100% DMSO and diluted in complete cell culture medium. […] of compound/media mixture was added to cells to bring total volume in well to […]. DMSO alone was used as a negative control. Plates were then spun at 300×g for three minutes and stored at 37° C. with 5% CO2 for three days.
# (§3) On Day 0 and Day 3 of compound treatment, cell viability was quantified with CellTiter-Glo 2.0 reagent (Promega). After equilibrating microplates at room temperature for 30 minutes, 25 μL CellTiter-Glo 2.0 reagent was dispensed into each well to bring total volume to […]. Plates were mixed on shaker for 2 minutes at 500 rpm, followed by a 10-minute incubation at room temperature. Following a quick spin, luminescence readings were measured with an En Vision Plate Reader. Data was normalized to DMSO treated Day 0 and Day 3 readings. A four-parameter non-linear regression curve fit was applied to dose-response data in GraphPad Prism data analysis software to determine the half maximal growth inhibitory concentration (GI50) for each compound.
# HEK293 cells = experiment: Cellular growth inhibition assay (CellTiter-Glo), HEK293 cells; format: cell-based; conditions: HEK293 cells, three days of compound treatment, CellTiter-Glo 2.0, read-out: CTG HEK293 GI50
# Protocol: as §1, §2, §3
# Sequence of BTK (Q06187 whole entry): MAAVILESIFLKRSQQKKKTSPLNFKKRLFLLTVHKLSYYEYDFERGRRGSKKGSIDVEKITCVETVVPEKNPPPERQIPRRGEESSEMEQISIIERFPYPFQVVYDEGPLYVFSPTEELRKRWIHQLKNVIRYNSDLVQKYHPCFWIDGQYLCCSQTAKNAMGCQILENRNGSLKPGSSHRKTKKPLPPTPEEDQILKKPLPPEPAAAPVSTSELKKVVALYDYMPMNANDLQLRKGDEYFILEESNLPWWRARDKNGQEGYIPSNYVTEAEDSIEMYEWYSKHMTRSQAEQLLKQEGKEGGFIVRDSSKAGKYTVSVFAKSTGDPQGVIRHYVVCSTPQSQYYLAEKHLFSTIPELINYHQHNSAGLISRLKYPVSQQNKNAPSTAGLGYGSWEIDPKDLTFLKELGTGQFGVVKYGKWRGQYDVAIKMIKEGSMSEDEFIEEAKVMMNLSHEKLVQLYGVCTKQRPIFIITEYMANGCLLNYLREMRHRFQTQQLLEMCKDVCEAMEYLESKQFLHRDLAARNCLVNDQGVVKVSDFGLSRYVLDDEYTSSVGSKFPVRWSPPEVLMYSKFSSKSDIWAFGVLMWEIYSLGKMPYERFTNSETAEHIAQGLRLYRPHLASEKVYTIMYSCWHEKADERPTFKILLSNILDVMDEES
Kd (BTK),"GI50 (HeLa cells; Homo sapiens, 72 h)",GI50 (HeLa cells),Structure (SMILES),"GI50 (HEK293 cells; Homo sapiens, 72 h)",GI50 (HEK293 cells)
< 50 nM,500 to 1500 nM,–,CN(OCCOCCOCCOCCOCCOCCOCCOC/C=C/C(=O)N1CCC[C@@H](n2nc(-c3ccc(Oc4ccccc4)cc3)c3c(N)ncnc32)C1)C(=O)N1N=C(c2cc(F)ccc2F)SC1(CCCN)c1ccccc1 (some centres unmarked) [Compound I-51],1500 to 5000 nM,–
–,< 500 nM,–,C=CC(=O)N1CCN([C@@H](CC2CC2)c2ccc([C@H](C)Nc3ncc4c(n3)N(CCOCCOCCOCCOCCOc3ccc(CNc5cc(N6CCCC[C@H]6CCO)nc6c(CC)cnn56)cn3)C(=O)OC4)cc2)CC1 [Compound I-57],< 500 nM,–
–,–,< 500 nM,CCc1cnn2c(NCc3ccc(OCCCc4cc(-c5cnc([C@H](C)Nc6nccc(N7C(=O)OC[C@@H]7[C@H](C)F)n6)cc5C)cc(C(F)(F)F)n4)nc3)cc(N3CCCC[C@H]3CCO)nc12 [Compound I-101],–,< 500 nM
–,–,< 500 nM,CCc1cnn2c(NCc3ccc(OCCOCCOCCCc4cc(-c5cnc([C@H](C)Nc6nccc(N7C(=O)OC[C@@H]7[C@H](C)F)n6)cc5C)cc(C(F)(F)F)n4)nc3)cc(N3CCCC[C@H]3CCO)nc12 [Compound I-99],–,< 500 nM
–,1500 to 5000 nM,–,"CN(C/C=C/C(=O)N1CCC[C@@H](n2nc(-c3ccc(Oc4ccccc4)cc3)c3c(N)ncnc32)C1)CCOCCOCCOCCOCCOCCOCCNS(=O)(=O)c1ccc(Nc2ncc(Br)c(Nc3cccc(F)c3C(N)=O)n2)cc1 [Compound I-65, 2-[[2-[4-[2-[2-[2-[2-[2-[2-[2-[[(E)-4-[(3R)-3-[4-amino-3-(4-phenoxyphenyl)pyrazolo[3,4-d]pyrimidin-1-yl]-1-piperidyl]-4-oxo-but-2-enyl]-methyl-amino]ethoxy]ethoxy]ethoxy]ethoxy]ethoxy]ethoxy]ethylsulfamoyl]anilino]-5-bromo-pyrimidin-4-yl]amino]-6-fluoro-benzamide]",> 5000 nM,–
–,< 500 nM,–,C=CC(=O)N1CCN([C@@H](CC2CC2)c2ccc([C@H](C)Nc3ncc4c(n3)N(CCOCCOCCOCCOCCn3cc(CNc5cc(N6CCCC[C@H]6CCO)nc6c(CC)cnn56)ccc3=O)C(=O)OC4)cc2)CC1 [Compound I-58],500 to 1500 nM,–
–,500 to 1500 nM,–,CCc1cnn2c(NCc3ccc(OCCOCCOCCOCCOCCOCCOCCOC/C=C/C(=O)N4CCC[C@@H](n5nc(-c6ccc(Oc7ccccc7)cc6)c6c(N)ncnc65)C4)nc3)cc(N3CCCC[C@H]3CCO)nc12 [Compound I-45],500 to 1500 nM,–
–,> 5000 nM,–,"CCNC(=O)C[C@@H]1N=C(c2ccc(OCCOCCOCCOCCOCCNS(=O)(=O)c3cc(F)cc(N(C(=O)[C@@H]4CCC(=O)N4c4cc(C#N)ccn4)C(C(=O)NC4CC(F)(F)C4)c4ccccc4Cl)c3)cc2)c2c(sc(C)c2C)-n2c(C)nnc21 (stereo partly drawn) [Compound I-104, (2S)—N-[1-(2-chlorophenyl)-2-[(3,3-difluorocyclobutyl)amino]-2-oxo-ethyl]-1-(4-cyano-2-pyridyl)-N-[3-[2-[2-[2-[2-[2-[4-[(9S)-9-[2-(ethylamino)-2-oxo-ethyl]-4,5, 13-trimethyl-3-thia-1,8,11,12-tetrazatricyclo[8.3.0.0^2,6]trideca-2 (6),4,7,10,12-pentaen-7-yl]phenoxy]ethoxy]ethoxy]ethoxy]ethoxy]ethylsulfamoyl]-5-fluoro-phenyl]-5-oxo-pyrrolidine-2-carboxamide]",> 5000 nM,–
50 to 500 nM,–,–,"CC[C@@H]1C(=O)N(C)c2cnc(Nc3ccc(C(=O)NCCCCCCCCOC/C=C/C(=O)N4CCC[C@@H](n5nc(-c6ccc(Oc7ccccc7)cc6)c6c(N)ncnc65)C4)cc3OC)nc2N1C1CCCC1 [Compound I-36, N-[8-[(E)-4-[(3R)-3-[4-amino-3-(4-phenoxyphenyl)pyrazolo[3,4-d]pyrimidin-1-yl]-1-piperidyl]-4-oxo-but-2-enoxy]octyl]-4-[[(7R)-8-cyclopentyl-7-ethyl-5-methyl-6-oxo-7H-pteridin-2-yl]amino]-3-methoxy-benzamide]",–,–

# More lines, now with the values behind:
Structure (SMILES),Kd (BTK),"GI50 (HeLa cells; Homo sapiens, 72 h)",GI50 (HeLa cells),"GI50 (HEK293 cells; Homo sapiens, 72 h)",GI50 (HEK293 cells)
"CC[C@@H]1C(=O)N(C)c2cnc(Nc3ccc(C(=O)NCCOCCOCCOC/C=C/C(=O)N4CCC[C@@H](n5nc(-c6ccc(Oc7ccccc7)cc6)c6c(N)ncnc65)C4)cc3OC)nc2N1C1CCCC1 [Compound I-37, N-[2-[2-[2-[(E)-4-[(3R)-3-[4-amino-3-(4-phenoxyphenyl)pyrazolo[3,4-d]pyrimidin-1-yl]-1-piperidyl]-4-oxo-but-2-enoxy]ethoxy]ethoxy]ethyl]-4-[[(7R)-8-cyclopentyl-7-ethyl-5-methyl-6-oxo-7H-pteridin-2-yl]amino]-3-methoxy-benzamide]",50 to 500 nM,–,–,–,–
"CC[C@@H]1C(=O)N(C)c2cnc(Nc3ccc(C(=O)NCCOCCOCCOCCOCCOCCOCCOC/C=C/C(=O)N4CCC[C@@H](n5nc(-c6ccc(Oc7ccccc7)cc6)c6c(N)ncnc65)C4)cc3OC)nc2N1C1CCCC1 [Compound I-39, N-[2-[2-[2-[2-[2-[2-[2-[(E)-4-[(3R)-3-[4-amino-3-(4-phenoxyphenyl)pyrazolo[3,4-d]pyrimidin-1-yl]-1-piperidyl]-4-oxo-but-2-enoxy]ethoxy]ethoxy]ethoxy]ethoxy]ethoxy]ethoxy]ethyl]-4-[[(7R)-8-cyclopentyl-7-ethyl-5-methyl-6-oxo-7H-pteridin-2-yl]amino]-3-methoxy-benzamide]",< 50 nM,–,–,–,–
"CCS(=O)(=O)Nc1ccc(Oc2cccc(OCCOCCOCC(=O)N3CC(=O)N(c4cc(C#N)ccn4)[C@H](C(=O)N(c4cc(F)cc(F)c4)[C@H](C(=O)NC4CC(F)(F)C4)c4ccccc4Cl)C3)c2)c(-c2cn(C)c(=O)c3[nH]ccc23)c1 [Compound I-107, (2S)—N-[(1S)-1-(2-chlorophenyl)-2-[(3,3-difluorocyclobutyl)amino]-2-oxo-ethyl]-1-(4-cyano-2-pyridyl)-N-(3,5-difluorophenyl)-4-[2-[2-[2-[3-[4-(ethylsulfonylamino)-2-(6-methyl-7-oxo-1H-pyrrolo[2,3-c]pyridin-4-yl)phenoxy]phenoxy]ethoxy]ethoxy]acetyl]-6-oxo-piperazine-2-carboxamide]",–,500 to 1500 nM,–,> 5000 nM,–
"C[C@@H](Nc1ccc(C#N)n(C)c1=O)c1cc2cc(Cl)c(C3CC(OCCOCCOCCOCCOCCN(C)C(=O)N4N=C(c5cc(F)ccc5F)SC4(CCCN)c4ccccc4)C3)cc2[nH]c1=O (stereo partly drawn) [Compound I-111, 2-(3-aminopropyl)-N-[2-[2-[2-[2-[2-[3-[6-chloro-3-[(1R)-1-[(6-cyano-1-methyl-2-oxo-3-pyridyl)amino]ethyl]-2-oxo-1H-quinolin-7-yl]cyclobutoxy]ethoxy]ethoxy]ethoxy]ethoxy]ethyl]-5-(2,5-difluorophenyl)-N-methyl-2-phenyl-1,3,4-thiadiazole-3-carboxamide]",–,500 to 1500 nM,–,1500 to 5000 nM,–
NC(=O)c1c(F)cccc1Nc1nc(Nc2ccc(S(=O)(=O)NCCCCCCCC/C=C/C(=O)N3CCC[C@@H](n4nc(-c5ccc(Oc6ccccc6)cc5)c5c(N)ncnc54)C3)cc2)ncc1Br [Compound I-17],500 to 2500 nM,–,–,–,–
CCc1cnn2c(NCc3ccc(=O)n(CCOCCOCCOCCOCCCc4cc(-c5cnc([C@H](C)Nc6nccc(N7C(=O)OC[C@@H]7[C@H](C)F)n6)cc5C)cc(C(F)(F)F)n4)c3)cc(N3CCCC[C@H]3CCO)nc12 [Compound I-103],–,–,500 to 1500 nM,–,500 to 1500 nM
"CCS(=O)(=O)Nc1ccc(Oc2cccc(OCCOCCOCCOCCOCC(=O)N3CC(=O)N(c4cc(C#N)ccn4)[C@H](C(=O)N(c4cc(F)cc(F)c4)C(C(=O)NC4CC(F)(F)C4)c4ccccc4Cl)C3)c2)c(-c2cn(C)c(=O)c3[nH]ccc23)c1 (stereo partly drawn) [Compound I-108, (2S)—N-[1-(2-chlorophenyl)-2-[(3,3-difluorocyclobutyl)amino]-2-oxo-ethyl]-1-(4-cyano-2-pyridyl)-N-(3,5-difluorophenyl)-4-[2-[2-[2-[2-[2-[3-[4-(ethylsulfonylamino)-2-(6-methyl-7-oxo-1 H-pyrrolo[2,3-c]pyridin-4-yl)phenoxy]phenoxy]ethoxy]ethoxy]ethoxy]ethoxy]acetyl]-6-oxo-piperazine-2-carboxamide]",–,< 500 nM,–,> 5000 nM,–
